Assays:
Details in all cases: deblocked single compounds
E. coli imp- = assay: Antimicrobial assay (MIC), E. coli imp-; type: cell-based, Escherichia coli
Procedure: In this assay, the strain E. coli imp- obtained from Spenser Bensen (Sampson., B. A., Misra, R. & Benson, S. A. (1989), Genetics, 122, 491-501, Identification and characterization of a new gene of Escherichia coli K-12 involved in outer membrane permeability) is used. To initiate the exponential phase of bacterial growth prior to the assay, a sample of bacteria is grown overnight at 37° C. in Luria broth. This bacteria is then used to reinoculate sample wells of 96-well microtiter plates. The assays are carried out in the 96-well microtiter plates in 150 μL volume with approximately 1×10^6 cells per well.
Bacteria in Luria broth (75 μL) is added to the compound mixtures in solution in 75 μL water in the individual well of the microtiter plate. Final concentrations of the compound mixtures are 25 μM, 10 μM and 1 μM. Each concentration of the compound mixtures are assayed in triplicate. The plates are incubated at 37° C. and growth monitored over a 24 hour period by measuring the optical density at 595 nm using a BioRad model 3550 UV microplate reader. The percentage of growth relative to a well containing no compound is determined. […]
Libraries in accordance with the present invention have been tested for antibacterial activity utilizing assays that determine the minimum inhibitory concentration (MIC). […] Activity has been detected in a number of libraries of the present invention.

Streptococcus pyogenes = assay: Antimicrobial assay (MIC), Streptococcus pyogenes; type: cell-based
Staphylococcus aureus = assay: Antimicrobial assay (MIC), Staphylococcus aureus; type: cell-based
Procedure: In this assay, the strain S. aureus ATCC 25923 (American Type Culture Collection) is used in the bioassay. To initiate the exponential phase of bacterial growth prior to the assay, a sample of bacteria is grown overnight at 37° C. in typtocase soy broth (BBL). This bacteria is then used to reinoculate sample wells of 96-well microtiter plates. The assays are carried out in the 96-well microtiter plates in 150 μL volume with approximately 1×10^6 cells per well.
Bacteria in typtocase soy broth (75 μL) is added to the compound mixtures in solution in 75 μL water/4% DMSO in the individual well of the microtiter plate. Final concentrations of the compound mixtures are 25 μM, 10 μM and 1 μM. Each concentration of the compound mixtures are assayed in triplicate. The plates are incubated at 37° C. and growth monitored over a 24 hour period by measuring the optical density at 595 nm using a BioRad model 3550 UV microplate reader. The percentage of growth relative to a well containing no compound is determined. Ampicillin and tetracycline antibiotic positive controls are concurrently tested in each screening assay.

Entercoccus hirae = assay: Antimicrobial assay (MIC), Entercoccus hirae; type: cell-based
Escherichia coli = assay: Antimicrobial assay (MIC), Escherichia coli; type: cell-based
Klebsiella pneumoniae = assay: Antimicrobial assay (MIC), Klebsiella pneumoniae; type: cell-based

Substance: 6-[(2-Aminobenzothiazole acetyl)piperazinyl]-2-[(m-chlorobenzyl)-piperazinyl]-N9-[(N′-t-Boc-N″-acetyl)piperazinyl]purine [Compound 46]
- minimum inhibitory activity, E. coli. imp- (E. coli imp-): 3 to 6 µM
- minimum inhibitory activity, Streptococcus pyogenes (Streptococcus pyogenes): 3 to 6 µM
- minimum inhibitory activity, Staphylococcus aureus (Staphylococcus aureus): 3 to 6 µM
- minimum inhibitory activity, Entercoccus hirae (Entercoccus hirae): 3 to 6 µM
- minimum inhibitory activity, Escherichia coli (Escherichia coli): 50 to 100 µM
- minimum inhibitory activity, Klebsiella pneumoniae (Klebsiella pneumoniae): 3 to 6 µM

Substance: 6-[(2-aminobenzothiazole acetyl)piperazinyl]-2-[(N-m-triflouromethylbenzyl)piper-azinyl]-N9-[(N′-t-Boc-N″-acetyl)piperazinyl]purine [Compound 50]
- minimum inhibitory activity, E. coli. imp- (E. coli imp-): 3 µM
- minimum inhibitory activity, Streptococcus pyogenes (Streptococcus pyogenes): 3 to 6 µM
- minimum inhibitory activity, Staphylococcus aureus (Staphylococcus aureus): 3 to 6 µM
- minimum inhibitory activity, Entercoccus hirae (Entercoccus hirae): 3 µM
- minimum inhibitory activity, Escherichia coli (Escherichia coli): >100 µM
- minimum inhibitory activity, Klebsiella pneumoniae (Klebsiella pneumoniae): 3 to 6 µM
